Series [1] relates to Reispflanzen. The experiment in a line: Growth inhibition in paddy rice, small plots. The settings on record: Oryza sativa, 504 h, read-out: Wuchsshemmung (%).
Source text: (§4) Reispflanzen werden in Kleinparzellen (2 m x 2 m) angezogen und im Stadium der maximalen Bestockung mit erfindungsgemäßen Verbindungen behandelt. Die Substanzen werden sowohl durch Spritzung appliziert als auch in das Wasser gegeben.
(§5) 3 Wochen nach der Behandlung wird bei allen Pflanzen der Zuwachs gemessen und die Wuchshemmung in % des Zuwachses der Kontrollpflanzen berechnet. Es wird außerdem auf eine mögliche phytotoxische Wirkung der Verbindungen geachtet.
(§6) Die Wuchshemmung wird als prozentualer Wert ermittelt, wobei 100% den Stillstand des Wachstums und 0% ein Wachstum entsprechend dem der unbehandelten Kontrollpflanzen bedeuten.
Series [2] deals with Reispflanzen. The note with it: in vivo.
Source text: as §4, §5, §6
The test system of another series is Roggen. The series can be described thus: Growth inhibition in cereals, greenhouse tray test, sprayed at 3-leaf stage. The class given is in vivo. The settings on record: % of growth increment of untreated controls, read-out: Wuchsshemmung in % bei Roggen; for pest or weed control at 1250 g/ha: 1,25 kg/ha; for pest or weed control at 2500 g/ha: 2,5 kg/ha. An excerpt: (§1) In Schalenversuchen im Gewächshaus werden junge Getreidepflanzen (Weizen, Gerste, Roggen) im 3-Blattstadium mit erfindungsgemäßen Verbindungen in verschiedenen Wirkstoffkonzentrationen (kg/ha) tropfnaß gespritzt. […]

Another series relates to Weizen. Described as above. The note with it: % of growth increment of untreated controls (100% = growth standstill), read-out: Wuchsshemmung in % bei Weizen; for pest or weed control at 1250 g/ha: 1,25 kg/ha; for pest or weed control at 2500 g/ha: 2,5 kg/ha. The class given is in vivo.
Source text: as §1

Series [3] relates to Sojabohnen. The settings on record: in vivo.
Source text: (§7) Etwa 10 cm große Sojabohnen werden mit den Wirkstoffzubereitungen tropfnaß bespritzt. Nach 3 Wochen wird bonitiert.
as §6
The subject of series [4] is Getreidepflanzen (Weizen, Gerste, Roggen). The experiment in a line: Phytotoxic effect observed in the cereal growth inhibition test. It is filed as in vivo. The note with it: cereals; one cell for 2,5 and 1,25 kg/ha. The source says: (§2) In Schalenversuchen im Gewächshaus werden junge Getreidepflanzen (Weizen, Gerste, Roggen) im 3-Blattstadium mit erfindungsgemäßen Verbindungen in verschiedenen Wirkstoffkonzentrationen (kg/ha) tropfnaß gespritzt.
(§3) Es wird außerdem die phytotoxische Wirkung der Verbindung beobachtet.

The test system of series [5] is Sojabohnen. The experiment in a line: Growth inhibition in soybeans. The note with it: Glycine max, 504 h, read-out: Wuchsshemmung (%).
Source text: as §7, §6
A further series deals with Gerste. The experiment in a line: Growth inhibition in cereals, greenhouse tray test, sprayed at 3-leaf stage. It is filed as in vivo. The note with it: % of growth increment of untreated controls, read-out: Wuchsshemmung in % bei Gerste; for pest or weed control at 1250 g/ha: 1,25 kg/ha; for pest or weed control at 2500 g/ha: 2,5 kg/ha.
Source text: as §2, §3

Take `CCc1cccc(CC)c1-n1cncc1C(=O)OC1CCCCC1` [Beispiel 36]: in the series on Reispflanzen [1], the pest or weed control at 620 g/ha is 14%. Besides, the pest or weed control at 1250 g/ha with Reispflanzen [1] amounted to 21%; with Roggen, 13%; in the series on Weizen, 10%; with Gerste, 17%. Also, the “Phytotox. Wirkung” value (in the series on Reispflanzen [2]; in the series with Sojabohnen [3]; in series [4]) was “keine Schäden” throughout. The pest or weed control at 2500 g/ha was 23% in the series with Roggen, 19% with Weizen, 19% with Sojabohnen [5] and 33% in the series on Gerste.

For `CCc1cccc(CC)c1-n1cncc1C(=O)ON=C(C)C` [Beispiel 40], in the series with Reispflanzen [1], the pest or weed control at 620 g/ha worked out at 18%. Moreover, the pest or weed control at 1250 g/ha with Reispflanzen [1] was determined as 25%; in the series on Roggen it was 21%; in the series on Weizen, 16%; in the series with Gerste, 19%. The “Phytotox. Wirkung” value (in the series with Reispflanzen [2]; in the series on Sojabohnen [3]; in series [4]) was “keine Schäden” throughout. For the same molecule, the pest or weed control at 2500 g/ha amounted to 27% with Roggen, 25% in the series on Weizen, 26% in the series on Sojabohnen [5] and 38% in the series on Gerste.

For the molecule `CCc1cccc(CC)c1-n1cncc1C(=O)ON=C(C)C(C)C` [Beispiel 42], the pest or weed control at 620 g/ha in the series with Reispflanzen [1] is 14%. Also, the pest or weed control at 1250 g/ha in the series with Reispflanzen [1] was found to be 19%; in the series with Roggen, 14%; with Weizen, 12%; in the series on Gerste, 16%. For the same molecule, the “Phytotox. Wirkung” value (in the series on Reispflanzen [2]; with Sojabohnen [3]; in series [4]) was “keine Schäden” each time. Also, the pest or weed control at 2500 g/ha in the series with Roggen worked out at 19%; in the series with Weizen, 21%; in the series with Sojabohnen [5], 19%; in the series on Gerste, 31%.

With `CCc1cccc(CC)c1-n1cncc1C(=O)ON=C(C)C1CC1` [Beispiel 45], the pest or weed control at 620 g/ha in the series on Reispflanzen [1] worked out at 13%. Besides, the pest or weed control at 1250 g/ha is 19% in the series on Reispflanzen [1], 15% with Roggen, 11% in the series with Weizen and 15% in the series with Gerste. Besides, the “Phytotox. Wirkung” value (in the series with Reispflanzen [2]; in the series with Sojabohnen [3]; in series [4]) was “keine Schäden” throughout. In addition, the pest or weed control at 2500 g/ha in the series on Roggen was found to be 22%; in the series with Weizen, 19%; in the series with Sojabohnen [5], 18%; in the series with Gerste, 32%.

As for `CCc1cccc(CC)c1-n1cncc1C(=O)ON=C1CCCCC1` [Beispiel 51], the pest or weed control at 620 g/ha in the series on Reispflanzen [1] worked out at 19%. The pest or weed control at 1250 g/ha is 26% with Reispflanzen [1], 20% in the series on Roggen, 16% with Weizen and 18% with Gerste. Further, the “Phytotox. Wirkung” value (with Reispflanzen [2]; in the series on Sojabohnen [3]; in series [4]) was “keine Schäden” each time. The pest or weed control at 2500 g/ha in the series on Roggen is 27%; in the series on Weizen it was 25%; in the series with Sojabohnen [5], 24%; with Gerste it was 37%.

On to `CCOC(=O)CSC(=O)c1cncn1-c1c(CC)cccc1CC` [Beispiel 54], for which the pest or weed control at 620 g/ha in the series with Reispflanzen [1] amounted to 14%. Further, the pest or weed control at 1250 g/ha with Reispflanzen [1] amounted to 21%; with Roggen it was 18%; in the series on Weizen it was 13%; in the series with Gerste it was 19%. In addition, the “Phytotox. Wirkung” value (in the series with Reispflanzen [2]; in the series with Sojabohnen [3]; in series [4]) was “keine Schäden” each time. Moreover, the pest or weed control at 2500 g/ha amounted to 24% in the series with Roggen, 22% in the series on Weizen, 19% in the series on Sojabohnen [5] and 33% in the series on Gerste.

As to `CCc1cccc(CC)c1-n1cncc1C(=O)NCC#N` [Beispiel 57], the pest or weed control at 620 g/ha with Reispflanzen [1] is 13%. Further, the pest or weed control at 1250 g/ha in the series with Reispflanzen [1] is 20%; with Roggen, 17%; in the series with Weizen, 12%; in the series on Gerste it was 18%. The “Phytotox. Wirkung” value (in the series on Reispflanzen [2]; in the series on Sojabohnen [3]; in series [4]) was “keine Schäden” each time. Also, the pest or weed control at 2500 g/ha in the series on Roggen is 23%; in the series with Weizen, 23%; with Sojabohnen [5] it was 18%; in the series with Gerste it was 31%.

Consider `CCc1cccc(CC)c1-n1cncc1C(=O)NCC(=O)O` [Beispiel 60], for which, in the series on Reispflanzen [1], the pest or weed control at 620 g/ha is 13%. Further, the pest or weed control at 1250 g/ha was determined as 21% with Reispflanzen [1], 17% in the series with Roggen, 13% in the series on Weizen and 19% in the series on Gerste. Moreover, the “Phytotox. Wirkung” value (with Reispflanzen [2]; with Sojabohnen [3]; in series [4]) was “keine Schäden” each time. In addition, the pest or weed control at 2500 g/ha in the series on Roggen stood at 24%; in the series with Weizen, 23%; with Sojabohnen [5], 21%; with Gerste, 32%.

Take `CCc1cccc(CC)c1-n1cncc1C(=O)NCC(=O)OC` [Beispiel 61]: in the series with Reispflanzen [1], the pest or weed control at 620 g/ha is 13%. The pest or weed control at 1250 g/ha in the series with Reispflanzen [1] is 20%; in the series with Roggen, 18%; with Weizen, 13%; in the series on Gerste, 19%. The “Phytotox. Wirkung” value (in the series with Reispflanzen [2]; with Sojabohnen [3]; in series [4]) was “keine Schäden” each time. Further, the pest or weed control at 2500 g/ha in the series on Roggen is 25%; in the series on Weizen it was 23%; with Sojabohnen [5], 17%; with Gerste, 31%.

With `CCc1cccc(CC)c1-n1cncc1C(=O)NN` [Beispiel 65], the pest or weed control at 620 g/ha with Reispflanzen [1] is 14%. Besides, the pest or weed control at 1250 g/ha with Reispflanzen [1] was 21%; in the series with Roggen it was 18%; in the series with Weizen it was 14%; in the series on Gerste, 19%. The “Phytotox. Wirkung” value (with Reispflanzen [2]; in the series with Sojabohnen [3]; in series [4]) was “keine Schäden” throughout. Also, the pest or weed control at 2500 g/ha in the series with Roggen stood at 24%; in the series on Weizen it was 21%; with Sojabohnen [5], 17%; in the series with Gerste, 29%.

The values above are taken from patent EP0185961A2, “1-Phenyl-imidazole-5-carboxylic acid derivatives, process for their preparation and their use as growth regulators” (HOECHST AKTIENGESELLSCHAFT, priority 1984, dated 1986).
